One data set has as its system NMDAR. As to conditions: cited from earlier work; for IC50: therapeutically beneficial NMDAR antagonists, ref [28],[61]–[68]; for V0: previously reported values, ref [28],[63],[68],[80]–[81].
Another data set addresses GluN1/2A NMDARs (Rattus norvegicus, UniProt P35439+Q00959). The format is cell-based. As to conditions: after removal of 10 μM blocker.
A further data set has as its system 5XFAD mice hippocampus. The data set is described as follows: Western blot of hippocampal proteins after treatment. The format is in vivo, mouse. Conditions: 5 mg / kg. A general note: Immunoblotting shows a protein as a band on a membrane.
The test system of the next data set is Caco-2 cells. The data set is described as follows: Caco-2 cell permeability. It counts as in vitro ADME. As to conditions: 10 μM in HBSS, 1 hour, 37 °C. For orientation: Caco-2 monolayers are a common model of the intestinal barrier.

Sequence of GluN1/2A NMDARs (Q00959 23-1464, other chains not shown): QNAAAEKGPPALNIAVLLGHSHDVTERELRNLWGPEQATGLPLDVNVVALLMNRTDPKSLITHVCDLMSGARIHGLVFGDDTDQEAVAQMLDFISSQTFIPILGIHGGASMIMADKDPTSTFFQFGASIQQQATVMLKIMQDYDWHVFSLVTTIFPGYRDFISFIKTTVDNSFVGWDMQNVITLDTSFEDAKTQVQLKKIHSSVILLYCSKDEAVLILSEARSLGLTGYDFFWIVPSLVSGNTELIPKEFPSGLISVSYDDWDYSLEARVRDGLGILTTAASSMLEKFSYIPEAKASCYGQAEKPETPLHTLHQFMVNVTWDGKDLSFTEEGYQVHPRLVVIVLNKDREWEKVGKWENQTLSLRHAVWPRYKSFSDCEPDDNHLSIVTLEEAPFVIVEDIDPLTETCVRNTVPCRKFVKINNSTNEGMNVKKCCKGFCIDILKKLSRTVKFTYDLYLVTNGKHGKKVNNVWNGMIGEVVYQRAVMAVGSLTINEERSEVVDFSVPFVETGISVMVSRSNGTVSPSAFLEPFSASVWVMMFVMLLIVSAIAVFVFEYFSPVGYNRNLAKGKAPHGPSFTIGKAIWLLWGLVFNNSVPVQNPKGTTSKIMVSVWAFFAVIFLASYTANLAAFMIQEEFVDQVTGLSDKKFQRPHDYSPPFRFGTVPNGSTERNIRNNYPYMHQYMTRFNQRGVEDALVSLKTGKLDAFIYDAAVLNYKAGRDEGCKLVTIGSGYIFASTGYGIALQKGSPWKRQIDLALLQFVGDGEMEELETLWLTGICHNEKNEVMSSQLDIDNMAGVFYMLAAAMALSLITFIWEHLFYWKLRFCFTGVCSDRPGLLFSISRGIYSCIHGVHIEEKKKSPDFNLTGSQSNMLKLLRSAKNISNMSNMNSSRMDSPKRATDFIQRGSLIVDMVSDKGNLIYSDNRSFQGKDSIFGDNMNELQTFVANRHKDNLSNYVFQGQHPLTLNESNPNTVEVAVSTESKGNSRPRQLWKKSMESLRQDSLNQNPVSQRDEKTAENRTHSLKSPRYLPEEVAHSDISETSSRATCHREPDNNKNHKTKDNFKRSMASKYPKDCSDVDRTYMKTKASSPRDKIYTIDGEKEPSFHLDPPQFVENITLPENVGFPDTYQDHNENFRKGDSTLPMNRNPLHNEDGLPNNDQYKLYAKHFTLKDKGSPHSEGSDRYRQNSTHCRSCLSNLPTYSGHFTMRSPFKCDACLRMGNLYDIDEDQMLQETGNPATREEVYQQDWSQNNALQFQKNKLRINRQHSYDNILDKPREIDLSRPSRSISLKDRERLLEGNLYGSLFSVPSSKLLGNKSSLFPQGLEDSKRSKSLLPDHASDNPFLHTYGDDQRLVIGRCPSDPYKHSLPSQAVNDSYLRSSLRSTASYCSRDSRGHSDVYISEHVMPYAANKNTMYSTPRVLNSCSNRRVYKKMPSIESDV

Regarding `NC12CC3CC(CC(C3)C1)C2` [amantadine], in the data set with NMDAR, the 50% inhibitory concentration (IC50) (commonly the midpoint of a concentration-inhibition curve) is 40 to 75 µM.
`CNC1(c2ccccc2Cl)CCCCC1=O` (stereo not drawn) [ketamine]: the V0 in the data set with NMDAR is 26 – 30 mV.
As for `CC12CC3CC(C)(C1)CC(N)(C3)C2` [Memantine, memantine], on GluN1/2A NMDARs, the “Unblocking kinetics, τweighted” value is recorded as 6.4 ± 1.4 s. In addition, in the data set with 5XFAD mice hippocampus, the “Calbindin D-28K protein levels” value is recorded as “reverts calbindin D-28K protein levels to WT levels” and the PSD95 expression result was “rescues expression of postsynaptic density protein (PSD) 95”. Moreover, in the data set on 5XFAD mice hippocampus (vs untreated 5XFAD), the “p-CREB protein levels in the nucleus” value is “significantly increased p-CREB protein levels in the nucleus”. In the data set with NMDAR, the V0 is listed as 26 – 30 mV and the IC50 was 1 to 2 µM.
As for Lucifer yellow, the “Caco-2 Papp (monolayer integrity)” value in the data set on Caco-2 cells is at most 1 ×10⁻⁶ cm/s.

Values taken from paper PMC9106868 (European journal of medicinal chemistry, 2022).
